In US10538561B2, “Peptide for treating inflammatory diseases” (priority 2015, dated 2020):

Legend:
VEGF = VEGF inhibition in keratinocytes (ELISA); format: cell-based, Human; set-up: inhibition of VEGF secretion as compared to untreated (basal) levels: dose or concentration left out as unconfirmed; conditions: HaCaT; for % Inhibition of VEGF wrt untreated (basal) levels / Conc. of VEGF: 24 h
Method: Cell lines: Human Keratinocytes (HaCaT); test item: IS181; treatment regimen: single addition—24 hours; concentration range: 0.1 μg/ml-100 μg/ml. […] Cells were serum-starved for another 24 hours (0% FBS). Cells were treated with IS181 for 24 hours. Supernatants were collected and stored at −20° C. till analysed. Levels of VEGF were analysed in supernatants by ELISA. Percent inhibition of VEGF secretion was calculated with reference to untreated levels. Positive control: curcumin; retinoic acid (at non-cytotoxic concentrations).

IL-23 = IL-23 secretion in LPS+IFN-γ stimulated THP-1; format: cell-based, Human; conditions: THP-1 + LPS + IFN-γ, 24 h
Method: Cell lines: Human monocytic cell line (THP-1); test item: IS181: treatment regimen; single addition—24 hours; concentration range: 10 μg/ml-5000 μg/ml. A) Identification of non-cytotoxic concentrations: THP-1 cells were treated with IS181 for 24 hours; effect on cell viability was assessed by MTT assay; concentrations leading to >75% cell viability were selected for IL-23 assay. […] Positive control: curcumin. […] Since supernatants corresponding to 5 concentrations were to be tested for […], we also tested 1 mg/ml.

EGFR (ErbB1) = EGFR (ErbB1) (Homo sapiens, UniProt P00533); experiment: Biochemical kinase assay EGFR
Method: (§1) Test system: cell free assays; test items: IS181; concentrations tested: 1 ng/ml-5000 μg/ml; Kinases: a) Cell free assays: EGFR (ErbB1); FLT1 (VEGFR1); JAK1; JAK3 MAP2K1 (MEK1); PDGFRA (PDGFR alpha); PRKCA (PKC alpha); b) cell based assay: JAK-STAT.

JAK3 = target: T1, JAK3 (Homo sapiens, UniProt P52333); experiment: Biochemical kinase assay JAK3
T1 sequence (P52333 1-1124): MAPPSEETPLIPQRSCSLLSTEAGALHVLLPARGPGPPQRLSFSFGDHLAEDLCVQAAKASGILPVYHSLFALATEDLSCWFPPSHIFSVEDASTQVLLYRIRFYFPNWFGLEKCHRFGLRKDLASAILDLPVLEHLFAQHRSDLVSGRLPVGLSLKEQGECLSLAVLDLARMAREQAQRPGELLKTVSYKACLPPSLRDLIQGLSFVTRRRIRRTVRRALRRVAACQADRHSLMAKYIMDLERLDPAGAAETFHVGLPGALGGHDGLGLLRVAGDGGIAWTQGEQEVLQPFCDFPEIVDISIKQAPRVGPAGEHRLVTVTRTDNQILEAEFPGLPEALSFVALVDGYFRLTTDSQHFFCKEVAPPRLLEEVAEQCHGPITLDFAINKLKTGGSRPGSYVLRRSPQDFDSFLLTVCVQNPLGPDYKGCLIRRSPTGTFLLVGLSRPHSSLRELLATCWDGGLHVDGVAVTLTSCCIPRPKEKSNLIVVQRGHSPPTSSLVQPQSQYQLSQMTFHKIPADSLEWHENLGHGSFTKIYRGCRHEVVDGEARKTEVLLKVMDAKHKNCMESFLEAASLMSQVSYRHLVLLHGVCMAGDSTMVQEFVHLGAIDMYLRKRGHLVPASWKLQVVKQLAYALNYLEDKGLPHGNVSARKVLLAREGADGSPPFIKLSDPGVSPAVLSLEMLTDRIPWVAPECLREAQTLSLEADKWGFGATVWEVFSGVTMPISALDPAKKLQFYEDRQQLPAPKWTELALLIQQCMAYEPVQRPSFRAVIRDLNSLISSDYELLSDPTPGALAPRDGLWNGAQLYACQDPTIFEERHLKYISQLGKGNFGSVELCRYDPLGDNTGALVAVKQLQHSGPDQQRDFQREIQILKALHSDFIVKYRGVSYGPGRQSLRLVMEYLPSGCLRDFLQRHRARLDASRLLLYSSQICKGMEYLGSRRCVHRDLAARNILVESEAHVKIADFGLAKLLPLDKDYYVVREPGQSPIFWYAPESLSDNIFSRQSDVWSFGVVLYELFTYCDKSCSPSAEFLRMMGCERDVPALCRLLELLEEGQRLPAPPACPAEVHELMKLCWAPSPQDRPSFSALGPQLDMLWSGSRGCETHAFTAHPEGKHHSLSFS
Method: as §1

[1] = system: Cyclobutane Pyrimidine Dimers (CPD); experiment: UVB damage: cyclobutane pyrimidine dimers (ELISA); format: cell-based, human; conditions: HaCaT
Method: Effect on Cyclobutane Pyrimidine Dimers (CPD); Effect on 8-oxo-G formation: Cell line: HaCaT (human keratinocytes); test items: IS 181; concentration range: 0.1-100 μg/ml (Duplicate wells). Method of estimation: Plating of cells; Sera starvation with 0.1% FBS (24 hours); treatment of cells with test items (24 hours); UVB damage (30 mJ/cm2)+Test items addition (24 hours); Cyclobutane pyrimidine dimers (CPD) and 8-oxo-G estimation using ELISA.

[2] = system: Imiquimod (IMQ) induced psoriasis; experiment: Imiquimod (IMQ) induced psoriasis model; format: in vivo, BALB/C mice

EGFR (ErbB1), sequence (P00533 25-1210): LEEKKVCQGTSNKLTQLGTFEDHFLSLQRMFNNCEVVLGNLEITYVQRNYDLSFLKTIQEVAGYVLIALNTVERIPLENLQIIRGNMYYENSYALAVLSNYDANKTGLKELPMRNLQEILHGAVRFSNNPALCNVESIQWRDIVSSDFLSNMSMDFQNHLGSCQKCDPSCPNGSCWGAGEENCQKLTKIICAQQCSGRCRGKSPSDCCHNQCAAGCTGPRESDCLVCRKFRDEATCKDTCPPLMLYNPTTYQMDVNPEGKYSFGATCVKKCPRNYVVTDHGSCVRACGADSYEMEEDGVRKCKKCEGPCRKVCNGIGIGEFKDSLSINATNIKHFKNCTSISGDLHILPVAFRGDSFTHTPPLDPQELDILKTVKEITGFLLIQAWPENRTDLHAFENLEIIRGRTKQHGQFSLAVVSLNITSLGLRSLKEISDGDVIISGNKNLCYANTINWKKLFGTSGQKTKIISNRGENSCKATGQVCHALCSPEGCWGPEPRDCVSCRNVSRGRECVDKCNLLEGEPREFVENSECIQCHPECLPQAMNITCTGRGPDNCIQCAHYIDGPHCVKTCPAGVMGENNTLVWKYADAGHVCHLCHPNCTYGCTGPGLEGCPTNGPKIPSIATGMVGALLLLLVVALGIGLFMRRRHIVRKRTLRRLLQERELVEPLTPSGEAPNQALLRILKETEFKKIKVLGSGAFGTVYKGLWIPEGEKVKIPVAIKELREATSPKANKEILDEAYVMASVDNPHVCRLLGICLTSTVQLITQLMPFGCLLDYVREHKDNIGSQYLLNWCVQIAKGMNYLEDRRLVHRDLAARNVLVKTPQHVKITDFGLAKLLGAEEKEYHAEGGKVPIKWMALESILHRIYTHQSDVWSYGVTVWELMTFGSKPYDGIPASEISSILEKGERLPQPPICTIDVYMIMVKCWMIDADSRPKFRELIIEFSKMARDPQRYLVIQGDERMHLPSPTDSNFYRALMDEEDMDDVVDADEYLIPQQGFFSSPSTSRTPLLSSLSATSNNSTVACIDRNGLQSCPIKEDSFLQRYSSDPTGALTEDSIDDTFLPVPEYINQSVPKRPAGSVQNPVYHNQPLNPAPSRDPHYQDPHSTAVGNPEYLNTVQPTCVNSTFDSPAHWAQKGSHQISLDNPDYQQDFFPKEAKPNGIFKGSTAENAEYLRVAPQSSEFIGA

- inhibition at 10 µg/mL (EGFR (ErbB1); 10 μg/ml): 43%
- inhibition at 50 µg/mL (EGFR (ErbB1); cell free, 50 μg/ml): 43%
- inhibition at 100 µg/mL (EGFR (ErbB1); cell free, 100 μg/ml): -12%
- inhibition at 250 µg/mL (EGFR (ErbB1); cell free, 250 μg/ml): -29%
- inhibition at 500 µg/mL (EGFR (ErbB1); cell free, 500 μg/ml): -56%
- inhibition at 1000 µg/mL (EGFR (ErbB1); cell free, 1000 μg/ml): -87%
- inhibition at 2000 µg/mL (EGFR (ErbB1); cell free, 2000 μg/ml): -155%
- inhibition at 10 µg/mL (JAK3; 10 μg/ml): 13%
- inhibition at 50 µg/mL (JAK3; cell free, 50 μg/ml): 13%
- inhibition at 100 µg/mL (JAK3; cell free, 100 μg/ml): -24%
- inhibition at 250 µg/mL (JAK3; cell free, 250 μg/ml): -72%
- inhibition at 500 µg/mL (JAK3; cell free, 500 μg/ml): -142%
- inhibition at 1000 µg/mL (JAK3; cell free, 1000 μg/ml): -198%
Substance: H-WVQRVVEKFLK-OH [IS181, H-Trp-Val-Gln-Arg-Val-Val-Glu-Lys-Phe-Leu-Lys-OH]
- inhibition of VEGF secretion as compared to untreated (basal) levels (VEGF): 11.1%-17%
- % Inhibition of VEGF wrt untreated (basal) levels (VEGF; 0.1 μg/ml): 17.0%
- Conc. of VEGF (VEGF; 0.1 μg/ml): 2982.4 pg/mL
- % Inhibition of VEGF wrt untreated (basal) levels (VEGF; 1 μg/ml): 12.6%
- Conc. of VEGF (VEGF; 1 μg/ml): 3139.7 pg/mL
- % Inhibition of VEGF wrt untreated (basal) levels (VEGF; 5 μg/ml): 11.1%
- Conc. of VEGF (VEGF; 5 μg/ml): 3193.5 pg/mL
- % Inhibition of VEGF wrt untreated (basal) levels (VEGF; 10 μg/ml): 12.9%
- Conc. of VEGF (VEGF; 10 μg/ml): 3128.2 pg/mL
- % Inhibition of VEGF wrt untreated (basal) levels (VEGF; 100 μg/ml): 0.7%
- Conc. of VEGF (VEGF; 100 μg/ml): 3565.8 pg/mL
- % Inhibition of IL-23 wrt Control (LPS + IFN-γ) (IL-23; 10 μg/ml): 69.8%
- Conc. of IL-23 (IL-23; 10 μg/ml): 25.4 pg/mL
- % Inhibition of IL-23 wrt Control (LPS + IFN-γ) (IL-23; 50 μg/ml): 66.3%
- Conc. of IL-23 (IL-23; 50 μg/ml): 25.3 pg/mL
- % Inhibition of IL-23 wrt Control (LPS + IFN-γ) (IL-23; 100 μg/ml): 72.3%
- Conc. of IL-23 (IL-23; 100 μg/ml): 23.3 pg/mL
- % Inhibition of IL-23 wrt Control (LPS + IFN-γ) (IL-23; 500 μg/ml): −10.9%
- Conc. of IL-23 (IL-23; 500 μg/ml): 93.3 pg/mL
- % Inhibition of IL-23 wrt Control (LPS + IFN-γ) (IL-23; 1000 μg/ml): 39.6%
- Conc. of IL-23 (IL-23; 1000 μg/ml): 50.6 pg/mL
- decrease in CPD ([1]; UVB 30 mJ/cm2, 10 μg/ml): 28%
- decrease in CPD ([1]; UVB 30 mJ/cm2, 100 μg/ml): 26%
- ear thickness (life phase) ([2]; 1.2 mg/kg i.m. and i.p): mild reduction in ear thickness
- spleen weight ([2]; i.p): mild reduction in spleen weight
